Laboratory results published in EP1077981B1, “NOVEL CEPHALOSPORIN COMPOUNDS, PROCESSES FOR PREPARATION THEREOF AND ANTIMICROBIAL COMPOSITIONS CONTAINING THE SAME” (LG CHEMICAL LIMITED, priority 1998, dated 1999).
≈ marks a conversion by molar mass, not a printed value.

What was measured:
S. aureus = test: MIC against standard strains (agar dilution); format: cell-based; settings: Staphylococcus aureus, Mueller-Hinton agar, 10^7 cfu/mℓ, 20 hours at 37°C
Procedure: (§1) Test example 1: Measurement of Minimum Inhibitory Concentration (MIC)
(§2) Specifically, test compounds were diluted by 2-fold dilution method and dispersed in Mueller-Hinton agar medium and then, 2µℓ of test strains were inoculated at a concentration of 10^7 cfu(colony forming unit)/mℓ on the medium and incubated for 20 hours at 37°C.

P. vulgaris = test: MIC against standard strains (agar dilution); format: cell-based; settings: Proteus vulgaris, Mueller-Hinton agar, 10^7 cfu/mℓ, 20 hours at 37°C
Procedure: as §1, §2

H. influenzae = test: MIC against standard strains (agar dilution); format: cell-based; settings: Haemophilus influenzae, 20 h
Procedure: as §1, §2

S. pneumoniae = test: MIC against standard strains (agar dilution); format: cell-based; settings: Streptococcus pneumoniae, Mueller-Hinton agar, 10^7 cfu/mℓ, 20 hours at 37°C
Procedure: as §1, §2

E. coli = test: MIC against standard strains (agar dilution); format: cell-based; settings: Escherichia coli, Mueller-Hinton agar, 10^7 cfu/mℓ, 20 hours at 37°C
Procedure: as §1, §2

[1] = Pharmacokinetic experiment (blood concentration by HPLC); format: in vivo, mice; settings: mice, Oral administration, 20mg/kg
Procedure: Test example 2: Pharmacokinetic experiment
Male mice, each of which has a body weight of […] were used in the present pharmacokinetic experiment. Test compounds were formulated into 1% of solution and then, the solution was administered by oral route and by injection with a dose of 20mg/kg, respectively. At the fixed interval of time after administration, blood was gathered from the mice. Concentrations of test compounds in blood were measured by HPLC quantitative analysis and based on the results, pharmacokinetic parameters were calculated.

Row | Structure (SMILES) | MIC (S. aureus) | MIC (P. vulgaris) | MIC (H. influenzae) | MIC (S. pneumoniae) | MIC (E. coli) | AUC ([1]; male, mouse, blood) | half-life ([1]; male, mouse, blood) | maximum conc. [1]
1 | CO/N=C(\C(=O)NC1C(=O)N2C(C(=O)O)=C(SCSc3nccc(N)n3)CSC12)c1csc(N)n1 (centres unmarked) [Compound No. 2, 7-[(Z)-2-(2-amino-thiazol-4-yl)-2-methoxyimino-acetylamino]-8-oxo-3-(4-amino-pyrimidin-2-ylsulfanylmethylsulfanyl)-5-t hia-1-aza-bicyclo[4,2,0]oct-2-ene-2-carboxylic acid] | 0.5 µg/mL (≈ 0.901 µM) | 0.031 µg/mL (≈ 0.0559 µM) | 0.008 µg/mL (≈ 0.0144 µM) | 0.25 µg/mL (≈ 0.451 µM) | 0.063 µg/mL (≈ 0.114 µM) | – | – | –
2 | CO/N=C(\C(=O)NC1C(=O)N2C(C(=O)O)=C(SCSc3ncccn3)CSC12)c1csc(N)n1 (centres unmarked) [compound 1, 7-[(Z)-2-(2-amino-thiazol-4-yl)-2-methoxyimino-acetylamino]-8-oxo-3-(pyrimidin-2-ylsulfanylmethylsulfanyl)-5-thia-1-aza-bicyclo[4,2,0]oct-2-ene-2-carboxylic acid] | 0.5 µg/mL (≈ 0.927 µM) | 0.063 µg/mL (≈ 0.117 µM) | 0.008 µg/mL (≈ 0.0148 µM) | 0.5 µg/mL (≈ 0.927 µM) | 0.13 µg/mL (≈ 0.241 µM) | – | – | –
3 | CO/N=C(\C(=O)NC1C(=O)N2C(C(=O)O)=C(SCSc3nc(N)cc(N)n3)CSC12)c1csc(N)n1 (centres unmarked) [compound 3, 7-[(Z)-2-(2-amino-thiazol-4-yl)-2-methoxyimino-acetylamino]-3-(4,6-diamino-pyrimidin-2-ylsulfanylmethylsulfanyl)-8-oxo-5-thia-1-aza-bicyclo[4,2,0]oct-2-ene-2-carboxylic acid] | 0.5 µg/mL (≈ 0.878 µM) | 0.016 µg/mL (≈ 0.0281 µM) | 0.016 µg/mL (≈ 0.0281 µM) | 0.25 µg/mL (≈ 0.439 µM) | 0.063 µg/mL (≈ 0.111 µM) | – | – | –
4 | CO/N=C(\C(=O)NC1C(=O)N2C(C(=O)O)=C(SCSc3cc(N)nc(N)n3)CSC12)c1csc(N)n1 (centres unmarked) [compound 4, 7-[(Z)-2-(2-amino-thiazol-4-yl)-2-methoxyimino-acetylamino]-3-(2,6-diamino-pyrimidin-4-ylsulfanylmethylsulfanyl)-8-oxo-5-thia-1-aza-bicyclo[4,2,0]oct-2-ene-2-carboxylic acid] | 0.25 µg/mL (≈ 0.439 µM) | 0.016 µg/mL (≈ 0.0281 µM) | 0.008 µg/mL (≈ 0.014 µM) | 0.13 µg/mL (≈ 0.228 µM) | 0.063 µg/mL (≈ 0.111 µM) | – | – | –
5 | Nc1cc(N)nc(SCSC2=C(C(=O)O)N3C(=O)C(NC(=O)/C(=N\O)c4csc(N)n4)C3SC2)n1 (centres unmarked) [compound 5, 7-[(Z)-2-(2-amino-thiazol-4-yl)-2-hydroxyimino-acetylamino]-3-(4,6-diamino-pyrimidin-2-ylsulfanylmethylsulfanyl)-8-oxo-5-thia-1-aza-bicyclo[4,2,0]oct-2-ene-2-carboxylic acid] | 0.13 µg/mL (≈ 0.234 µM) | 0.031 µg/mL (≈ 0.0558 µM) | 0.25 µg/mL (≈ 0.45 µM) | 1 µg/mL (≈ 1.8 µM) | 0.063 µg/mL (≈ 0.113 µM) | – | – | –
6 | Nc1cc(SCSC2=C(C(=O)O)N3C(=O)C(NC(=O)/C(=N\O)c4csc(N)n4)C3SC2)nc(N)n1 (centres unmarked) [compound 6, 7-[(Z)-2-(2-amino-thiazol-4-yl)-2-hydroxyimino-acetylamino]-3-(2,6-diamino-pyrimidin-4-ylsulfanylmethylsulfanyl)-8-oxo-5-thia-1-aza-bicyclo[4,2,0]oct-2-ene-2-carboxylic acid] | 0.13 µg/mL (≈ 0.234 µM) | 0.031 µg/mL (≈ 0.0558 µM) | 0.5 µg/mL (≈ 0.9 µM) | 0.5 µg/mL (≈ 0.9 µM) | 0.031 µg/mL (≈ 0.0558 µM) | – | – | –
7 | CO/N=C(\C(=O)NC1C(=O)N2C(C(=O)O)=C(SCSc3cc(N)nc(N)n3)CSC12)c1nc(N)sc1Cl (centres unmarked) [compound 8, 7-[(Z)-2-(2-amino-5-chloro-thiazol-4-yl)-2-methoxyimino-acetylamino]-3-(2,6-diamino-pyrimidin-4-ylsulfanylmethylsulfanyl)-8-oxo-5-thia-1-aza-bicyclo[4,2,0]oct-2-ene-2-carboxylic acid] | 0.25 µg/mL (≈ 0.414 µM) | 0.25 µg/mL (≈ 0.414 µM) | 0.031 µg/mL (≈ 0.0513 µM) | 0.13 µg/mL (≈ 0.215 µM) | 0.25 µg/mL (≈ 0.414 µM) | – | – | –
8 | CO/N=C(\C(=O)NC1C(=O)N2C(C(=O)O)=C(SCc3cnc(N)nc3N)CSC12)c1csc(N)n1 (centres unmarked) [compound 19, 7-[(Z)-2-(2-amino-1,3-thiazol-4-yl)-2-methoxyimino-acetylamino]-3-(2,4-diaminopyrimidin-5-ylmethylsulfanyl)-8-oxo-5-t hia-1-aza-bicyclo[4,2,0]oct-2-ene-2-carboxylic acid] | – | – | – | – | – | 6320 ng·h/mL | 1.15 h | 3.2 µg/mL
